We go through one compound from article PMC5444710, “Enhancement of radiosensitivity by the novel anticancer quinolone derivative vosaroxin in preclinical glioblastoma models” (Oncotarget, 2017).

One assay concerns caspase-3. Description: Caspase-3 activity (ELISA). It is filed as cell-based, human. To be noted: addition of vosaroxin (IC20) to RT. The procedure: After appropriate treatments, tumor cell cultures and tissues were harvested for analysis of cytokine expression. Cell pellets were washed with PBS and lysed with RIPA buffer. Cell lysates and conditioned media were assayed by ELISA to measure (i) active human caspase-3 (CBA045, Merck Chemicals Ltd., Nottingham, UK), (ii) beclin-1 (E98557Hu, USCN Life Sciences, Houston, TX, USA), and (iii) DNA damage (EpiQuik in situ DNA Damage Assay Kit, Epigentek, Farmingdale, NY, USA).

The test system of assay [1] is U87MG, U251, and T98G cells. Description: Autophagy: acidic vesicular organelle (AVO) staining. The class given is cell-based, human. To be noted: vosaroxin at IC20 for each cell line added to RT 4 Gy; 24 hours. The source says: As a marker of autophagy we evaluated the presence of AVOs after staining of cell cultures with LysoTracker® Red DND-99 kit (Life Technologies Italia, Monza, Italy) according to the manufacturer’s instructions. The intensity of the red fluorescence is proportional to the degree of acidity. The percentage of autophagic cells was quantified with the Tali® Image-Based Cytometer (Life Technologies) measuring fluorescence emission at 590 nm with fluorescence excitation at 577 nm. The results were expressed as the percentage of cell AVOs stained in controls and in treated cultures.

A further assay has as its system GBM cell lines. Description: Clonogenic survival assays (abstract statement). The note with it: Homo sapiens. The class given is cell-based. The procedure:
For clonogenic survival assays, exponentially growing cells (70% confluence) were cultured in regular media and treated with vosaroxin, at the appropriate concentrations, or vehicle (final dimethyl sulfoxide concentration of 0.1%) for 48 hours. Tumor cells were then irradiated at room temperature with increasing doses of radiation (0–6 Gy) using an x-ray linear accelerator (dose rate of 200 cGy/min). Nonirradiated controls were handled identically to the irradiated cells with the exception of the radiation exposure. […] Colonies containing more than 50 cells were counted. The plating efficiency was calculated as the number of colonies observed divided by the number of cells plated. The surviving fraction was calculated as the number of colonies formed in the treated dishes compared with the number formed in the control. The survival curves were analyzed using SPSS statistical software (Chicago, IL, USA) by means of a fit of the data by a weighted, stratified, linear regression, according to the linear-quadratic formula: S(D)/S(O) = exp-(αD + βD2). The cell survival enhancement ratio was calculated as the ratio of the mean inactivation dose under control conditions divided by the mean inactivation dose after treatment as previously described.

The subject of assay [2] is 13 human glioma cell lines and three patient-derived glioblastoma stem cell lines. Description: Cell viability / growth inhibition, whole panel. The class given is cell-based. The procedure: Cells were seeded at a density of 2 × 10^4 cells/mL in 24-well plates. Cells were […] to attach and grow in 5% fetal bovine serum in DMEM for 24 hours. Cells were treated with different doses of radiation or temozolomide and then maintained in the appropriate culture conditions. At the conclusion of the treatment period, cells were trypsinized and resuspended in 1.0 mL of saline; viable cells were counted using the NucleoCounter^TM NC-100 (Chemotec, […], Denmark). All experiments were conducted in triplicate. IC50 values were calculated using GraFit (Erithacus Software Limited, Staines, UK).

For assay [3], the system named is U87MG, U251, and T98G xenografts. Description: iNOS and arginase-1 expression in xenograft tissue extracts. It is filed as in vivo, female CD1-nu/nu mice. The note with it: tissue extracts from U87MG. The procedure:
After appropriate treatments, tumor cell cultures and tissues were harvested for analysis of cytokine expression. Cell pellets were washed with PBS and lysed with RIPA buffer. Cell lysates and conditioned media were assayed by ELISA to measure (i) active human caspase-3 (CBA045, Merck Chemicals Ltd., Nottingham, UK), (ii) beclin-1 (E98557Hu, USCN Life Sciences, Houston, TX, USA), and (iii) DNA damage (EpiQuik in situ DNA Damage Assay Kit, Epigentek, Farmingdale, NY, USA). Tumor extracts were analyzed for the presence of:
• MMP-2 (KHC3081) • TNF-α (KHC3011, Life Technologies Italia, Monza, Italy) • CXCR4 (Cyto Glow CXCR4 [pSer339], cell-based ELISA, Assay Biotech, Sunnyvale, CA, USA) • Human Fas ligand (ELH-FASL, RayBiotech, Norcross, GA, USA) • IL-6 (orb50052) and survivin (orb50135) (Biorbyt) • TGF-β1 (Quantikine ELISA Kit, DB100B, R&D Systems, Minneapolis, MN, USA) • SDF-1α (Human CXCL12/SDF-1α Quantikine ELISA Kit, DSA00, R&D Systems) • Mouse IL-10 DuoSet ELISA DY417 (R&D Systems Minneapolis, MN, USA) • Mouse NOS2 / iNOS ELISA Kit (Sandwich ELISA) - LS-F12166 (LifeSpan Biosciences, Inc, Seattle, WA, USA) • Mouse ARG1 / Arginase-1 ELISA Kit (Sandwich ELISA) - LS-F10883 (LifeSpan Biosciences, Inc, Seattle, WA, USA)

The test system of another assay is beclin-1. Description: Beclin-1 expression (Western blot and ELISA). To be noted: after vosaroxin treatment at IC20; U87MG, U251, T98G. The class given is cell-based, human. Here is the method: Cells grown in 90 mm diameter Petri dishes were treated and at various timepoints were washed with cold phosphate-buffered saline (PBS) and immediately lysed with 1 mL radioimmunoprecipitation assay (RIPA) buffer containing protease and phosphatase inhibitor cocktail. Total lysates were electrophoresed in SDS-PAGE (7%), and separated proteins transferred to nitrocellulose and probed with the appropriate antibodies using the conditions recommended by the suppliers. Protein levels in total extracts were normalized to actin. After appropriate treatments, tumor cell cultures and tissues were harvested for analysis of cytokine expression. Cell pellets were washed with PBS and lysed with RIPA buffer. Cell lysates and conditioned media were assayed by ELISA to measure (i) active human caspase-3 (CBA045, Merck Chemicals Ltd., Nottingham, UK), (ii) beclin-1 (E98557Hu, USCN Life Sciences, Houston, TX, USA), and (iii) DNA damage (EpiQuik in situ DNA Damage Assay Kit, Epigentek, Farmingdale, NY, USA).
(In general: In western blotting, separated proteins are transferred to a membrane and probed.)

One may read the IC50 as the midpoint of a concentration-inhibition curve. A word on the IC20: it is the concentration at which the effect reaches the 20% level. In the case of `CN[C@H]1CN(c2ccc3c(=O)c(C(=O)O)cn(-c4nccs4)c3n2)C[C@@H]1OC` [vosaroxin], the caspase-3 activity entry in the assay with caspase-3 is given as “increased”. Moreover, in assay [1], the “RT-induced AVO staining” value is recorded as “reduced”. Also, in the assay on GBM cell lines, the IC50 was 0.01 to 0.1 µM. In assay [2] (Glioma cell, glioma cells used in clonogenic studies, read-out: IC20 values in growth inhibition assays, range), the IC20 was in the range of 0.01 to 0.1 µM. Besides, the IC50 in assay [2] (read-out: IC50 values, range over all cell lines tested) lay in the range of 0.0128 to 0.261 µM. Also, in assay [3], the “arginase-1 expression (M2 marker)” value is “low expression” and the “iNOS expression (M1 marker)” value was “high expression”. For the same compound, the “RT-induced levels of beclin-1” value in the assay with beclin-1 is given as “significantly reduced”.
